How the values were obtained:
[1] = tested on: homovanillic acid in tuberculum olfactorium; assay: Homovanillic acid level in tuberculum olfactorium of the rat brain; format: in vivo; settings: 3 h after the administration
[2] = tested on: spontaneous locomotor activity in mice; assay: Inhibition of spontaneous locomotor activity in mice; format: in vivo; settings: for times less active than compound A, inhibition of spontaneous locomotor activity: mice, relative to compound A
[3] = tested on: apomorphine emesis in dogs; assay: Inhibition of apomorphine emesis in dogs; format: in vivo
[4] = biological target: T1, dopamine receptors in corpus striatum (Rattus norvegicus, UniProt P61169); assay: Inhibition of 3H-spiperone binding, corpus striatum
T1 construct: dopamine receptors in the two brain structures; from tissue; host or cells: rat brain, corpus striatum

[5] = Rota-rod test in mice (motor coordination); settings: mouse, po
[6] = Solubility in water; format: physicochemical
[7] = Acute toxicity in rats (oral); settings: rat, in vivo
[8] = tested on: dopamine levels in corpus striatum; assay: Dopamine level in corpus striatum of the rat brain; format: in vivo; settings: for dopamine level, striatum: 20 mg/kg, in words
[9] = Rota-rod test in rats (motor coordination); settings: rat, po
[10] = tested on: homovanillic acid in corpus striatum; assay: Homovanillic acid level in corpus striatum of the rat brain; format: in vivo
[11] = tested on: dopamine levels in tuberculum olfactorium; assay: Dopamine level in tuberculum olfactorium of the rat brain; format: in vivo; settings: 20 mg/kg, in words
[12] = tested on: apomorphine-induced climbing behavior of mice; assay: Apomorphine-induced climbing behavior of mice; format: in vivo
[13] = tested on: mice; settings: mouse, in vivo, po
[14] = in vivo; settings: mouse, po
[15] = tested on: rats; assay: Cataleptic activity in rats; settings: for cataleptic activity: rats, 50 mg/kg, oral
[16] = tested on: apomorphine-elicited agitation and stereotypes in rats; assay: Antiapomorphine action in rats; format: in vivo; settings: for effect on apomorphine-elicited agitation / effect on apomorphine-elicited stereotypes: 20 and 50 mg/kg, by 2 h after administration; for antiapomorphine effect: 50 mg/kg, oral
[17] = tested on: cataleptogenic effect of perphenazine in rats; assay: Potentiation of the cataleptogenic effect of perphenazine in rats; format: in vivo; settings: 50 mg/kg, oral
Procedure: A further compound of the invention is 1-(2-chloro-7-fluoro-10, 11-dihydrodibenzo (b,f) thiepin-10-yl)-4-(2-(1,3-dioxolan-2-yl)ethyl)piperazine, which also was tested as the methanesulfonate (compound B). This compound and the following ones were likewise administered orally, and the data is calculated per bases.
(§1) The invention further includes 1-(2-chloro-7-fluoro-10, 11-dihydrodibenzo (b,f) thiepin-10-yl)-4-(2-(1,3-dioxan-2-yl) ethyl)piperazine, which is also tested as the methanesulfonate (compound C).

[18] = Overall antidopaminergic / neuroleptic activity and pharmacological profile; settings: in words
[19] = Acute toxicity in mice, intravenous administration; settings: mouse, in vivo
Procedure: as §1

[20] = tested on: motility of mice; settings: Mus musculus, po, read-out: medium effective dose, motility of mice

T1 sequence (P61169 whole entry): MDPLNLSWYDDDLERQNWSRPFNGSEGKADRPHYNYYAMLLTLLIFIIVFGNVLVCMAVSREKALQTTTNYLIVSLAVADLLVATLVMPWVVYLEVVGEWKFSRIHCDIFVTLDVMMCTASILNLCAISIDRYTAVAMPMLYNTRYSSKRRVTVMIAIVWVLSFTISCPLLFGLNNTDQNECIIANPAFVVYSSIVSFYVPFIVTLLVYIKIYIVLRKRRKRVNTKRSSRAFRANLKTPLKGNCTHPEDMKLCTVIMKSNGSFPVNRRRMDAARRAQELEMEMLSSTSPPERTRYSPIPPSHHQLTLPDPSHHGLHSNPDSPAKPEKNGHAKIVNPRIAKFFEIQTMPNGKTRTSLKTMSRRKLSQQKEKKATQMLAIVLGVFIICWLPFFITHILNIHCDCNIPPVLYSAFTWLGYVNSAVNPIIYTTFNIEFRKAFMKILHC

Row | SMILES | TD50 [5] [mg/kg] | solubility in water ([6]; monomethanesulfonate) | solubility in water ([6]; neutral maleate) | dopamine level, striatum [8] | dopamine level, tuberculum olfactorium [11] | cataleptic activity [15] | effect on apomorphine-elicited agitation [16] | effect on apomorphine-elicited stereotypes [16] | potentiation of the cataleptogenic effect of perphenazine [17] | pharmacological profile compared with compound A [18] | increase of homovanillic acid level in striatum ([10]; rat, 80 mg/kg, 3 h, oral) | LD50 ([14]; LD50, mice, per base) [mg/kg] | antiapomorphine effect [16] | increase of homovanillic acid level in striatum ([10]; rat, 20 mg/kg, 3 h) [%] | times less active than compound A, inhibition of spontaneous locomotor activity [2] | further results
1 | NC(=O)CCN1CCN(C2Cc3cc(Cl)ccc3Sc3cc(F)ccc32)CC1 (stereo not shown) [Compound A] | 2 | excellently water-soluble | poorly soluble in water | does not significantly affect the dopamine levels | does not significantly affect the dopamine levels | lacks cataleptic activity | significantly inhibits the agitation | does not affect the apomorphine-elicited stereotypes | – | – | – | – | – | – | – | level of homovanillic acid, tuberculum olfactorium [1]: intensively increases; minimal effective dose ([1]; oral, read-out: threshold dose significantly increasing homovanillic acid concentration, tuberculum olfactorium): 2 mg/kg; ED50 ([2]; Mus musculus, po, read-out: medium active dose D50, inhibition of spontaneous locomotor activity): 1.05 mg/kg; minimal effective dose ([3]; Canis lupus familiaris, oral, by 4 h after the administration, read-out: threshold activity dose, inhibition of apomorphine emesis): 2 mg/kg; inhibition of apomorphine emesis, duration ([3]; within 24 h): within 24 h the effect disappears; IC50 [4]: 49.7 nM; LD50 [7]: 654 mg/kg; TD50 [9]: 19.5 mg/kg; minimal effective dose ([10]; Rattus norvegicus, po, 3 h, read-out: threshold dose significantly increasing homovanillic acid concentration, corpus striatum): 5 mg/kg; level of homovanillic acid, corpus striatum ([10]; rat, 3 h after the administration): intensively increases; ED50 ([12]; Mus musculus, po, read-out: medium effective dose PD50, apomorphine-induced climbing behavior): 2.9 mg/kg; LD50 on longer evaluation of the toxicity test [13]: lower LD50 values; LD50 at 48 h ([14]; LD50, female mice, per base): 316 mg/kg; LD50 at 48 h ([14]; LD50, male mice, per base): 336 mg/kg; cataleptic activity (general statement) ([15]; compounds of the invention, in words): noncataleptic
2 | Fc1ccc2c(c1)Sc1ccc(Cl)cc1CC2N1CCN(CCC2OCCO2)CC1 (stereo not shown) [Compound B, 1-(2-chloro-7-fluoro-10, 11-dihydrodibenzo (b,f)thiepin-10-yl)-4-(2-(1,3-dioxolan-2-yl)ethyl)piperazine] | 3.5 | readily water-soluble | slightly soluble in water | – | – | no cataleptic effect | – | – | only mildly potentiates the cataleptogenic effect of perphenazine | approximately comparable | 504% | 350 | only a slight indication of antiapomorphine effect | – | – | solubility in water ([6]; monomethanesulfonate, listed as Example 3): excellently water-soluble; solubility ([6]; water, monomethanesulfonate, aqueous solution, read-out: concentration of aqueous solutions provided): > 100 mg/mL; lowering of dopamine level in striatum ([8]; 80 mg/kg, 3 h): 25%
3 | Fc1ccc2c(c1)Sc1ccc(Cl)cc1CC2N1CCN(CCC2OCCCO2)CC1 (stereo not shown) [Compound C, 1-(2-chloro-7-fluoro-10, 11-dihydrodibenzo (b,f)thiepin-10-yl)-4-(2-(1,3-dioxan-2-yl)ethyl)piperazine] | 2.86 | excellently water-soluble | poorly soluble in water | the dopamine level is not affected | – | no cataleptic effect | – | – | only mildly potentiates the cataleptogenic effect of perphenazine | approximately comparable | – | > 500 | does not reveal any antiapomorphine effect | 400 | – | affinity to dopamine receptors in striatum, release of 3H spiperone ([4]; striatum, in words, compared with clozapine): approximately the same as with clozapine; solubility in water ([6]; neutral maleate, listed as Example 4): only very slightly soluble in water; LD50 [19]: 77.6 mg/kg
4 | NC(CCN1CCN(C2Cc3cc(Cl)ccc3Sc3cc(F)ccc32)CC1)=NO (stereo not shown) [Compound D] | – | – | – | – | – | – | – | – | – | approximately comparable | more than 300% | – | – | – | – | ED50 [20]: 50 mg/kg; LD50 [14]: 320 mg/kg
5 | CN(C)CCCN1c2ccccc2Sc2ccc(Cl)cc21 [chlorpromazine, reference compound] | – | – | – | – | – | – | – | – | – | – | – | – | – | – | 5 times | activity relative to compound A, climbing behavior ([12]; mice, % of activity of compound A): approx. 50%
6 | CN1CCN(C2=Nc3cc(Cl)ccc3Nc3ccccc32)CC1 [clozapine, 8-chloro-11-(4-methylpiperazine)-5H-dibenzo (b,e)-(1,4)diazepine, reference compound] | – | – | – | slightly decreases dopamine levels | slightly decreases dopamine levels | behaves similarly | effects neither agitation nor stereotypes | effects neither agitation nor stereotypes | – | – | – | – | – | 200 | approx. 4 times | –

— US4678788A, “N-substituted 2-chloro-7-fluoro-10-piperazino-10,11-dihydrodibenzo (B,F) thiepins and acid addition salts thereof” (SPOFA, Spojene Podniky Pro Zdravotnickou Vyrobu, priority 1985, dated 1987)
